Values of other authors, collected in PMC7904743, “WIDOCK: a reactive docking protocol for virtual screening of covalent inhibitors” (Journal of Computer-Aided Molecular Design, 2021).
Where two headings read alike, the source gives them in different places.

What was measured:
NUDT7 = conditions: protein labeling at 200 μM; experimental actives if % labeling higher than 50%; cited from earlier work
OTUB2 = conditions: experimental actives if % labeling higher than 50%; cited from earlier work
[1] = thiol reactivity, cited from earlier work
[2] = natural log of average rate constant k
[3] = natural logarithm of average rate constant

SMILES | NUDT7 % labeling (NUDT7) [%] | OTUB2 % labeling (OTUB2) [%] | ln(avg k) [1, 2] | ln(avg k) [1, 3]
Cc1ccc(C2=NN(C(=O)CCl)C(c3ccco3)C2)o1 (centres unmarked) [PCM-0102102, Cc1ccc(C2=NN(C(=O)CCl)C(c3ccco3)C2)o1] | 20 | 0 | -14.412 | -14.412
CCN1CCC(NC(=O)CCl)CC1 [PCM-0102103, CCN1CCC(NC(=O)CCl)CC1] | 0 | 0 | -15.455 | -15.455
O=C(CCl)Nc1ccc2c(c1)OC1(CCCCC1)O2 [PCM-0102104, O=C(CCl)Nc1ccc2c(c1)OC1(CCCCC1)O2] | 8 | 47 | -15.658 | -15.658
CCN(C(=O)CCl)C1CCS(=O)(=O)C1 (centres unmarked) [PCM-0102105, CCN(C(=O)CCl)C1CCS(=O)(=O)C1] | 0 | 0 | -15.384 | -15.384
CC(NC(=O)CCl)c1ccccc1Cl (centres unmarked) [PCM-0102110, CC(NC(=O)CCl)c1ccccc1Cl] | 0 | 25 | -16.453 | -16.453
O=C(CCl)Nc1ccc(Cl)c(Cl)c1 [PCM-0102112, O=C(CCl)Nc1ccc(Cl)c(Cl)c1] | 18 | 30 | -15.433 | -15.433
CNC(=O)c1cccc(NC(=O)CCl)c1 [PCM-0102113, CNC(=O)c1cccc(NC(=O)CCl)c1] | 0 | 0 | -15.492 | -15.492
CC(=O)Nc1ccc(NC(=O)CCl)cc1 [PCM-0102114, CC(=O)Nc1ccc(NC(=O)CCl)cc1] | 0 | 0 | -16.157 | -16.157
Cc1cccc(NC(=O)CCl)c1 [PCM-0102116, Cc1cccc(NC(=O)CCl)c1] | 0 | 11 | -15.855 | -15.855
CC(NC(=O)CCl)c1cc2ccccc2o1 (centres unmarked) [PCM-0102117, CC(NC(=O)CCl)c1cc2ccccc2o1] | 12 | 41 | -16.443 | -16.443
O=C(CCl)NC12CC3CC(CC(C3)C1)C2 [PCM-0102118, O=C(CCl)NC12CC3CC(CC(C3)C1)C2] | 0 | 0 | -16.476 | -16.476
Cc1ccc(NC(=O)NC(=O)CCl)cc1C [PCM-0102119, Cc1ccc(NC(=O)NC(=O)CCl)cc1C] | 9 | 0 | -16.034 | -16.034
O=C(CCl)Nc1ccc(Cl)cc1 [PCM-0102120, O=C(CCl)Nc1ccc(Cl)cc1] | 18 | 23 | -15.805 | -15.805
O=C(CCl)N1CCN(S(=O)(=O)c2ccc(Cl)s2)CC1 [PCM-0102121, O=C(CCl)N1CCN(S(=O)(=O)c2ccc(Cl)s2)CC1] | 15 | 0 | -15.220 | -15.220
O=C(CCl)NC(=O)NCc1ccccc1 [PCM-0102122, O=C(CCl)NC(=O)NCc1ccccc1] | 0 | 0 | -16.001 | -16.001
O=C(CCl)N1CCc2sccc2C1 [PCM-0102123, O=C(CCl)N1CCc2sccc2C1] | 14 | 39 | -15.106 | -15.106
O=C(CCl)N1CCN(c2ccc(Cl)cc2[N+](=O)[O-])CC1 [PCM-0102125, O=C(CCl)N1CCN(c2ccc(Cl)cc2[N+](=O)[O-])CC1] | 29 | 0 | -15.501 | -15.501
O=C(CCl)Nc1nc2ccc(Br)cc2s1 [PCM-0102126, O=C(CCl)Nc1nc2ccc(Br)cc2s1] | 100 | 12 | -16.235 | -16.235

SMILES | NUDT7 % labeling (NUDT7) [%] | OTUB2 % labeling (OTUB2) [%] | ln(avg k) [1, 2] | ln(avg k) [1, 3]
O=C(CCl)Nc1ccc(Cl)cc1C(=O)O [PCM-0102127, O=C(CCl)Nc1ccc(Cl)cc1C(=O)O] | 0 | 10 | -16.749 | -16.749
CC(NC(=O)CCl)c1ccccc1 (centres unmarked) [PCM-0102128, CC(NC(=O)CCl)c1ccccc1] | 13 | 42 | -16.398 | -16.398
CC(=O)N1CCc2cc(NC(=O)CCl)ccc21 [PCM-0102129, CC(=O)N1CCc2cc(NC(=O)CCl)ccc21] | 7 | 31 | -15.858 | -15.858
Cc1c(Cl)cccc1NC(=O)CCl [PCM-0102130, Cc1c(Cl)cccc1NC(=O)CCl] | 0 | 0 | -15.962 | -15.962
Cc1ccc(-n2nc(C)c(NC(=O)CCl)c2C)cc1 [PCM-0102131, Cc1ccc(-n2nc(C)c(NC(=O)CCl)c2C)cc1] | 0 | 0 | -16.325 | -16.325
O=C(CCl)N1CCN(CC(=O)N2CCOCC2)CC1 [PCM-0102133, O=C(CCl)N1CCN(CC(=O)N2CCOCC2)CC1] | 0 | 15 | -15.992 | -15.992
Cc1cc([N+](=O)[O-])ccc1NC(=O)CCl [PCM-0102134, Cc1cc([N+](=O)[O-])ccc1NC(=O)CCl] | 10 | 11 | -16.240 | -16.240
O=C(CCl)NC1CCS(=O)(=O)C1 (centres unmarked) [PCM-0102138, O=C(CCl)NC1CCS(=O)(=O)C1] | 0 | 0 | -15.936 | -15.936
O=C1CN(C(=O)CCl)C2(CCCCC2)C(=O)N1 [PCM-0102139, O=C1CN(C(=O)CCl)C2(CCCCC2)C(=O)N1] | 22 | 5 | -15.673 | -15.673
COc1ccc(NC(=O)CCl)cn1 [PCM-0102140, COc1ccc(NC(=O)CCl)cn1] | 0 | 0 | -13.166 | -13.166
CS(=O)(=O)c1ccccc1NC(=O)CCl [PCM-0102141, CS(=O)(=O)c1ccccc1NC(=O)CCl] | 0 | 0 | -16.264 | -16.264
O=C(CCl)NNC(=O)c1cc2c(s1)CCCC2 [PCM-0102142, O=C(CCl)NNC(=O)c1cc2c(s1)CCCC2] | 9 | 100 | -16.868 | -16.868
Cc1c(C#N)c(NC(=O)CCl)n(-c2cccc(F)c2)c1C [PCM-0102146, Cc1c(C#N)c(NC(=O)CCl)n(-c2cccc(F)c2)c1C] | 58 | 10 | -15.589 | -15.589
N#CCc1ccc(NC(=O)CCl)cc1 [PCM-0102148, N#CCc1ccc(NC(=O)CCl)cc1] | 10 | 43 | -15.302 | -15.302
O=C(CCl)NCc1ccccc1F [PCM-0102149, O=C(CCl)NCc1ccccc1F] | 0 | 62 | -16.082 | -16.082
O=C(CCl)N1CCC(c2ccccc2)=N1 [PCM-0102150, O=C(CCl)N1CCC(c2ccccc2)=N1] | 0 | 0 | -14.898 | -14.898
O=C(CCl)Nc1ccccc1Cl [PCM-0102152, O=C(CCl)Nc1ccccc1Cl] | 0 | 20 | -16.303 | -16.303
